Key:
Assay type in all cases: functional
Escherichia coli = assay: Antimicrobial activity against Escherichia coli ATCC 25922 assessed as zone of inhibition after 24 hrs by agar well-diffusion method
Pseudomonas aeruginosa = assay: Antimicrobial activity against Pseudomonas aeruginosa ATCC 27853 assessed as zone of inhibition after 24 hrs by agar well-diffusion method
Staphylococcus aureus = assay: Antimicrobial activity against Staphylococcus aureus ATCC 29213 assessed as zone of inhibition after 24 hrs by agar well-diffusion method

Cc1ccc(C2=NN(c3nc(-c4ccccc4)cs3)C(c3ccc(C)cc3)C2)cc1 (configuration not stated)
inhibition zone (IZ) (Escherichia coli): 7 mm
inhibition zone (IZ) (Pseudomonas aeruginosa): 16 mm
inhibition zone (IZ) (Staphylococcus aureus): 7 mm

COc1ccc(C2CC(c3ccc(C)cc3)=NN2c2nc(-c3ccccc3)cs2)cc1 (configuration not stated)
inhibition zone (IZ) (Escherichia coli): 7 mm
inhibition zone (IZ) (Pseudomonas aeruginosa): 19 mm

COc1ccc(C2CC(c3ccccc3)=NN2c2nc(-c3ccccc3)cs2)cc1 (configuration not stated)
inhibition zone (IZ) (Pseudomonas aeruginosa): 7 mm
inhibition zone (IZ) (Staphylococcus aureus): 6 mm

COc1ccc(C2C3CCc4ccccc4C3=NN2c2nc(-c3ccccc3)cs2)cc1 (configuration not stated)
inhibition zone (IZ) (Pseudomonas aeruginosa): 9 mm
inhibition zone (IZ) (Staphylococcus aureus): 8 mm

c1ccc(C2=NN(c3nc(-c4ccccc4)cs3)C(c3cccs3)C2)cc1 (configuration not stated)
inhibition zone (IZ) (Pseudomonas aeruginosa): 19 mm
inhibition zone (IZ) (Staphylococcus aureus): 9 mm

Clc1ccc(C2C3CCc4ccccc4C3=NN2c2nc(-c3ccccc3)cs2)cc1 (configuration not stated)
inhibition zone (IZ) (Escherichia coli): 7 mm
inhibition zone (IZ) (Pseudomonas aeruginosa): 9 mm

GENTAMICIN
inhibition zone (IZ) (Escherichia coli): 22 mm
inhibition zone (IZ) (Pseudomonas aeruginosa): 21 mm
inhibition zone (IZ) (Staphylococcus aureus): 23 mm

COc1ccc(C2=NN(c3nc(-c4ccccc4)cs3)C(c3ccc(OC)cc3)C2)cc1 (configuration not stated)
inhibition zone (IZ) (Escherichia coli): 8 mm
inhibition zone (IZ) (Pseudomonas aeruginosa): 18 mm

COc1ccc(C2=NN(c3nc(-c4ccccc4)cs3)C(c3ccc(C)cc3)C2)cc1 (configuration not stated)
inhibition zone (IZ) (Pseudomonas aeruginosa): 17 mm
inhibition zone (IZ) (Staphylococcus aureus): 7 mm

c1ccc(-c2csc(N3N=C4c5ccccc5CCC4C3c3cccs3)n2)cc1 (configuration not stated)
inhibition zone (IZ) (Escherichia coli): 8 mm
inhibition zone (IZ) (Pseudomonas aeruginosa): 16 mm

From ChEMBL document CHEMBL2311410, “Facile regioselective synthesis of novel bioactive thiazolyl-pyrazoline derivatives via a three-component reaction and their antimicrobial activity” (2013)
